Structures can show the parent of a compound that is named as a salt. Where two headings read alike, the source gives them in different places.
Key:
[1] = Evaluation of blood cell number in mouse; assay type: in vivo; conditions: male ICR mice, oral, repeated 7 or 9 days
Description: All compounds were repeatedly administered to the mice at a dose of 1 mg/kg, 10 mg/kg or 100 mg/kg (body weight) for 7 or 9 days. One day after the final administration of the compound, the whole blood was collected.
Using Sysmex XT-1800i (Sysmex Corporation), the white blood cell number, red blood cell number, and platelet number in the collected whole blood per unit volume were measured. The influence of each compound on each blood cell number was determined by calculating the number with the mean of each blood cell number of the mouse without administration of the compound (0 mg/kg group), and the mean of each blood cell number in the whole blood of a mouse with the administration of the compound.

[2] = Evaluation of hippocampal distribution in mouse; assay type: in vivo; conditions: male ICR mice, 10 mg/kg oral; for concentration at 0.5 h: 0.5 h after administration
[3] = male, ICR, mouse, hippocampus, po, 10 mg/kg, 1 h after administration, read-out: Concentration Hippocampus, Mean
[4] = male, ICR, mouse, plasma, po, 10 mg/kg, 1 h after administration, read-out: Concentration Plasma, Mean
[5] = 1 h after administration, sulfate

SMILES	Platelets, Mean ([1]; 1 mg/kg)	Red blood cells, Mean ([1]; 1 mg/kg)	White blood cells, Mean ([1]; 1 mg/kg)	Platelets, Mean ([1]; 10 mg/kg)	Red blood cells, Mean ([1]; 10 mg/kg)	White blood cells, Mean ([1]; 10 mg/kg)	Platelets, Mean ([1]; 100 mg/kg)	Red blood cells, Mean ([1]; 100 mg/kg)	White blood cells, Mean ([1]; 100 mg/kg)	concentration at 1 h [2, 3]	concentration at 1 h [2, 4]	other results
O=C(NC1CCOCC1)c1csc([C@@H]2C[C@H]2NCC2CC2)c1 [Example 71, 5-((1R,2R)-2-((cyclopropylmethyl)amino)cyclopropyl)-N-(tetrahydro-2H-pyran-4-yl)thiophene-3-carboxamide hydrochloride]	1178 10^3 cells	873 10^4 cells	275 10 cells	1197 10^3 cells	817 10^4 cells	276 10 cells	1322 10^3 cells	853 10^4 cells	323 10 cells	82 ng/g	229 ng/mL	
Cc1nnc(NC(=O)c2cc([C@@H]3C[C@H]3NCC3CCOCC3)c(C)s2)s1 [Example 97, 5-methyl-N-(5-methyl-1,3,4-thiadiazol-2-yl)-4-((1S,2R)-2-((tetrahydro-2H-pyran-4-ylmethyl)amino)cyclopropyl)thiophene-2-carboxamide hydrochloride]	1462 10^3 cells	902 10^4 cells	377 10 cells	1483 10^3 cells	890 10^4 cells	366 10 cells	1533 10^3 cells	929 10^4 cells	332 10 cells	194 ng/g	978 ng/mL	
Cc1nnc(NC(=O)c2cc([C@@H]3C[C@H]3NC3CCC3)c(C)s2)s1 [Example 99, 4-((1S,2R)-2-(cyclobutylamino)cyclopropyl)-5-methyl-N-(5-methyl-1,3,4-thiadiazol-2-yl)thiophene-2-carboxamide hydrochloride]	1442 10^3 cells	892 10^4 cells	399 10 cells	1380 10^3 cells	915 10^4 cells	378 10 cells	1519 10^3 cells	876 10^4 cells	347 10 cells	640 ng/g	2950 ng/mL	
Cc1nnc(NC(=O)c2cc([C@@H]3C[C@H]3NC3CCC3)cs2)s1 [Example 118, 4-((1S,2R)-2-(cyclobutylamino)cyclopropyl)-N-(5-methyl-1,3,4-thiadiazol-2-yl)thiophene-2-carboxamide sulfate]												Platelets, Mean ([1]; 1 mg/kg, sulfate): 1051 10^3 cells; Red blood cells, Mean ([1]; 1 mg/kg, sulfate): 853 10^4 cells; White blood cells, Mean ([1]; 1 mg/kg, sulfate): 299 10 cells; Platelets, Mean ([1]; 10 mg/kg, sulfate): 1158 10^3 cells; Red blood cells, Mean ([1]; 10 mg/kg, sulfate): 907 10^4 cells; White blood cells, Mean ([1]; 10 mg/kg, sulfate): 312 10 cells; Platelets, Mean ([1]; 100 mg/kg, sulfate): 1176 10^3 cells; Red blood cells, Mean ([1]; 100 mg/kg, sulfate): 881 10^4 cells; White blood cells, Mean ([1]; 100 mg/kg, sulfate): 245 10 cells; Concentration Hippocampus, Mean [2, 5]: 0.151 µg/g; Concentration Plasma, Mean [2, 5]: 405 ng/mL
Cc1sc(C(=O)Nc2cnn(C)c2)cc1[C@@H]1C[C@H]1NC1CCC1 [Example 123, 4-((1S,2R)-2-(cyclobutylamino)cyclopropyl)-5-methyl-N-(1-methyl-1H-pyrazol-4-yl)thiophene-2-carboxamide hydrochloride]							1333 10^3 cells	866 10^4 cells	380 10 cells			Platelets, Mean ([1]; 1 mg/kg, hydrochloride): 1086 10^3 cells; Red blood cells, Mean ([1]; 1 mg/kg, hydrochloride): 846 10^4 cells; White blood cells, Mean ([1]; 1 mg/kg, hydrochloride): 390 10 cells; Platelets, Mean ([1]; 10 mg/kg, hydrochloride): 1234 10^3 cells; Red blood cells, Mean ([1]; 10 mg/kg, hydrochloride): 854 10^4 cells; White blood cells, Mean ([1]; 10 mg/kg, hydrochloride): 368 10 cells; concentration at 0.5 h ([2]; male, ICR, mouse, hippocampus, po, 10 mg/kg, read-out: Concentration Hippocampus, Mean): 369 ng/g; concentration at 0.5 h ([2]; male, ICR, mouse, plasma, po, 10 mg/kg, read-out: Concentration Plasma, Mean): 1110 ng/mL

More lines, main results first:

Platelets, Mean ([1]; 1 mg/kg)	Red blood cells, Mean ([1]; 1 mg/kg)	White blood cells, Mean ([1]; 1 mg/kg)	Platelets, Mean ([1]; 10 mg/kg)	Red blood cells, Mean ([1]; 10 mg/kg)	White blood cells, Mean ([1]; 10 mg/kg)	Platelets, Mean ([1]; 100 mg/kg)	Red blood cells, Mean ([1]; 100 mg/kg)	White blood cells, Mean ([1]; 100 mg/kg)	concentration at 1 h [2, 3]	concentration at 1 h [2, 4]	SMILES	other results
1399 10^3 cells	899 10^4 cells	403 10 cells	1445 10^3 cells	926 10^4 cells	424 10 cells	1411 10^3 cells	903 10^4 cells	329 10 cells	170 ng/g	1330 ng/mL	Cc1nnc(NC(=O)c2cc([C@@H]3C[C@H]3NCC3CC3)cs2)s1 [Example 82, 4-((1S,2R)-2-((cyclopropylmethyl)amino)cyclopropyl)-N-(5-methyl-1,3,4-thiadiazol-2-yl)thiophene-2-carboxamide dihydrochloride]	
									177 ng/g	523 ng/mL	Cc1nnc(NC(=O)c2cc([C@@H]3C[C@H]3NC3CCC3)cs2)s1 [Example 84, 4-((1S,2R)-2-(cyclobutylamino)cyclopropyl)-N-(5-methyl-1,3,4-thiadiazol-2-yl)thiophene-2-carboxamide dihydrochloride]	Platelets, Mean ([1]; 1 mg/kg, dihydrochloride): 1533 10^3 cells; Red blood cells, Mean ([1]; 1 mg/kg, dihydrochloride): 910 10^4 cells; White blood cells, Mean ([1]; 1 mg/kg, dihydrochloride): 370 10 cells; Platelets, Mean ([1]; 10 mg/kg, dihydrochloride): 1627 10^3 cells; Red blood cells, Mean ([1]; 10 mg/kg, dihydrochloride): 880 10^4 cells; White blood cells, Mean ([1]; 10 mg/kg, dihydrochloride): 339 10 cells; Platelets, Mean ([1]; 100 mg/kg, dihydrochloride): 1665 10^3 cells; Red blood cells, Mean ([1]; 100 mg/kg, dihydrochloride): 900 10^4 cells; White blood cells, Mean ([1]; 100 mg/kg, dihydrochloride): 313 10 cells; Kp at 1 h ([2]; male, ICR, mouse, hippocampus/plasma, po, 10 mg/kg, 1 h after administration, read-out: Ratio (hippocampus/plasma), Mean): 0.339
